How the values were obtained:
[1] = in vivo; parameters: species or system Beagle dogs; conditions: dog, in vivo; for concentration at 15 min post-infusion / concentration at 15 min / Kp at 2 h / Kp at 8 h: both sexes; for Kp at 2 h / Kp at 8 h: Kp [tissue]/[plasma]
Description: The test article will be administered to 8 Beagle dogs by intravenous infusion over two hours (Part A) or eight hours (Part B) as shown in Table 6.
(§1) Multiple samples of tissue weighing approximately 1 gram were removed and snap frozen in the presence or absence of phosphoric acid (H3PO4). For all tissue samples, the levels of curcumin and THC were determined using a method developed by the Bioanalytical Department at Nucro-Technics. […] Values that were below the limit of quantification were assigned a value of 0. […] Tissue distribution data was analyzed using, unless stated, the data from 4 dogs and are presented as the mean±standard error (S.E.).

[2] = rat, rodent studies; cited from earlier work
[3] = in vivo; assay type: in vivo, Beagle dogs; conditions: dog, in vivo, iv, 10 mg/kg
Description: (§2) The results and analysis for the study are presented for intravenous infusion dosing of a total dose of 10 mg/kg infused over a period of either 2 or 8 hours. Plasma levels of curcumin and its metabolite, THC were measured at timed intervals post-dosing.
For the 2 hour infusion, blood samples were taken at predose and 0.25, 0.5, 1.5 and at 2 hours during infusion and at 15 minutes post-infusion. For the 8 hour infusion, blood samples were taken at predose and 0.25, 0.5, 1.5, […] and at 8 hours during infusion and at 15 minutes post-infusion.
(§3) Bioanalysis was performed on two sets of samples, one set that was treated with phosphoric acid and one set that was not treated with phosphoric acid. […] Values that were below the limit of quantification were assigned a value of 0.
Plasma concentration vs. time profiles were analyzed using (unless otherwise stated) the data from 4 dogs. Plasma profiles for the test articles are presented as the mean data±SE of 4 dogs. Average plasma concentrations were used to perform the PK analysis. Plasma concentration vs. time profiles were analyzed and the PK parameters estimated using WinNonlin Version 5.2.1 employing the intravenous infusion model with first order elimination. Unless stated otherwise, the plasma concentration-time profiles for the test articles are presented as the mean data±SE of 4 dogs.

[4] = in vivo; assay type: in vivo, Beagle dogs; conditions: dog, in vivo
Description: as §2, §3
as §1, with “Fifteen minutes following either the 2 hour or 8 hour infusion, blood, urine and bile samples were taken, prior to the dogs being necropsied and organs removed for the isolation of tissues. Multiple” for “Multiple”

[5] = tested on: MPTP-induced depletion of DA and DOPAC; conditions: 80 mg/kg i.p.; cited from earlier work

concentration at 15 min post-infusion ([1]; Beagle, Tissue analysis, Liver): 28.4 ng/g | concentration at 15 min post-infusion ([1]; Beagle, Tissue analysis, Spleen): 22.9 ng/g | concentration at 15 min ([1]; Beagle, Tissue level, Brain Stem): 0.3 ng/g | concentration at 15 min ([1]; beagle, Average tissue concentration, Bladder): 0.66 ng/g | concentration at 15 min ([1]; beagle, Average tissue concentration, Brainstem): 0.45 ng/g | concentration at 15 min ([1]; beagle, Average tissue concentration, Heart): 0.47 ng/g | concentration at 15 min ([1]; beagle, Average tissue concentration, Intestinal wall): 1.14 ng/g | concentration at 15 min ([1]; beagle, Average tissue concentration, Striatum): 0.48 ng/g | Kp at 2 h ([1]; beagle, Brain Stem): 0.0081 | Kp at 8 h ([1]; beagle, Brain Stem): 0.0389 | Kp at 2 h ([1]; beagle, Cortex, Brain): 0.0134 | Kp at 8 h ([1]; beagle, Cortex, Brain): 0.0544 | Kp at 2 h ([1]; beagle, Heart): 0.0087 | Kp at 8 h ([1]; beagle, Heart): 0.0503 | Kp at 2 h ([1]; beagle, Hippocampus): 0.0016 | Kp at 8 h ([1]; beagle, Hippocampus): 0.0007 | Kp at 2 h ([1]; beagle, Intestinal Wall): 0.0206 | Kp at 8 h ([1]; beagle, Intestinal Wall): 0.0564 | Kp at 2 h ([1]; beagle, Kidney): 0.0161 | Kp at 8 h ([1]; beagle, Kidney): 0.186 | Kp at 2 h ([1]; beagle, Liver): 0.0329 | Kp at 8 h ([1]; beagle, Liver): 1.9 | Kp at 2 h ([1]; beagle, Lungs): 0.413 | Kp at 8 h ([1]; beagle, Lungs): 16.8 | Kp at 2 h ([1]; beagle, Muscle): 0.0034 | Kp at 8 h ([1]; beagle, Muscle): 0.053 | Kp at 2 h ([1]; beagle, Pancreas): 0.0166 | Kp at 8 h ([1]; beagle, Pancreas): 0.191 | Kp at 2 h ([1]; beagle, Striatum): 0.0087 | Kp at 8 h ([1]; beagle, Striatum): 0.0329 | Kp at 2 h ([1]; beagle, Urinary Bladder): 0.0125 | Kp at 8 h ([1]; beagle, Urinary Bladder): 0.152 | concentration at 15 min ([1]; beagle, Tissue analysis, Brainstem): 0.45 ng/g | concentration at 15 min ([1]; beagle, Tissue analysis, Cortex): 0.73 ng/g | concentration at 15 min ([1]; beagle, Tissue level, Cortex, Brain): 0.52 ng/g | concentration at 15 min ([1]; beagle, Tissue level, Heart): 0.49 ng/g | Average tissue concentration, Bladder ([1]; both, beagle, 15 min): 0.87 ng/gm | Average tissue concentration, Brainstem ([1]; both, beagle, 15 min): 0.57 ng/gm | Average tissue concentration, Cortex ([1]; both, beagle, 15 min): 0.80 ng/gm | Average tissue concentration, Heart ([1]; both, beagle, 15 min): 0.74 ng/gm | Average tissue concentration, Striatum ([1]; both, beagle, 15 min): 0.49 ng/gm | Tissue analysis, Brainstem ([1]; both, beagle, 15 min): 0.32 | Tissue analysis, Cortex ([1]; both, beagle, 15 min): 0.52 | Tissue level, Brain Stem ([1]; both, beagle, 15 min): 0.41 ng/g | Tissue level, Cortex, Brain ([1]; both, beagle, 15 min): 0.72 ng/g | Tissue level, Heart ([1]; both, beagle, 15 min): 0.67 ng/g | Kp [tissue]/[plasma], Liver ([1]; both, beagle, 8 h): 1.9047 | Kp [tissue]/[plasma], Lungs ([1]; both, beagle, 8 h): 16.8289 | clearance ([3]; both sexes, Beagle): 343 mL/min/kg | Cmax ([3]; both sexes, Beagle, Cmax): 15 ng/mL | MRT ([3]; both sexes, beagle): 36 min | Vd ([3]; both sexes, beagle): 12.7 L/kg | clearance ([3]; both sexes, beagle): 343 mL/min/kg | half-life ([3]; both sexes, beagle): 24 min | AUC ([3]; both sexes, beagle, AUC): 65 ng·h/mL | AUC ([3]; both sexes, beagle, AUC (estimated PK parameter)): 485 ng·h/mL | Cmax ([3]; both sexes, beagle, Cmax): 46 ng/mL | Cmax ([3]; both sexes, beagle, Cmax (estimated PK parameter)): 233 ng/mL | AUC ([3]; both, Beagle): 52 ng·h/mL | Ke ([3]; both, Beagle): 1.6 h⁻¹ | concentration at 15 min ([4]; both sexes, Beagle, Plasma level): 0 ng/mL | Plasma level ([4]; both, beagle, 15 min): 0 ± 0 ng/mL
Structure (SMILES): COc1cc(/C=C/C(=O)CC(=O)/C=C/c2ccc(O)c(OC)c2)ccc1O [Curcumin, 1,7-bis(4-hydroxy-3-methoxyphenyl)-1,6-heptadiene-3,5-dione, reference compound]
Kp values [2]: 0.06-0.25 | MPTP-induced depletion of DA and DOPAC [5]: significantly reversed
